Measurements taken from publication PMC9953095, “Design, Synthesis and Biological Evaluation of Quinazolinamine Derivatives as Breast Cancer Resistance Protein and P-Glycoprotein Inhibitors with Improved Metabolic Stability” (Biomolecules, 2023).
Values joined by “and” are separate entries in the source; they are usually repeats but may differ in a detail not shown here. Equal entries are not always repeated. Where two headings read alike, the source gives them in different places. Each block holds one compound with its values, some of them ahead of it.

Legend:
[1] = Metabolic stability with human liver microsomes; format: in vitro ADME; conditions: after 1 h of incubation with human liver microsomes, 37 °C, NADPH; note: tested at 200 µM
Description: Human liver microsome (20 mg/mL) 6.25 µL, nicotinamide adenine dinucleotide phosphate (NADPH) (0.75 µmol), MgCl2 (0.75 µmol), and the test compound (0.05 µmol) were added into a potassium phosphate buffer (pH 7.4) with 250 µL of final volume. The incubation was carried out aerobically at 37 °C. The mixture was pre-incubated without NADPH for 10 min at 37 °C and NADPH was added to start the reaction. At 1 h after the start of the reaction, an aliquot (50 µL) of the incubation mixture was taken from each incubation and mixed with 150 µL of ice-cold acetonitrile to terminate the reaction. Subsequently, the sample was centrifuged (12,000 rpm) at room temperature. The resulting supernatant was filtered and analyzed using HPLC (LC, Agilent 1200; column, HC-C18(2); column temperature, 25 °C; mobile phase, solvent A, methanol, solvent B, water; gradient elution, 30–99% solvent A; flow rate, 1 mL/min; UV signals were recorded at 254 nm).

H460 cells = assay: [3H]-mitoxantrone accumulation assay, H460; format: cell-based, human; conditions: parental H460 cells; compound 5 μM; Figure 6A
Description: (§1) To determine the accumulation of drugs on H460, H460/MX20, KB-3-1, and KB-C2 cells, the cells ([…] cells/well) were seeded in the 24-well plates and incubated at 37 °C with 5% CO2 [17]. After 12 h of incubation, a test compound (5 µM) was added and the plates were incubated at 37 °C for 2 h. Cells were then incubated with 0.01 µM [^3H]-MX or [^3H]-paclitaxel-containing medium for an additional 2 h at 37 °C, with or without a test compound. The cells were washed twice with ice-cold phosphate-buffered saline (PBS), trypsinized and lysed at the end of incubation. The radioactivity was measured using the Packard TRICARB1 1900A liquid scintillation analyzer.

[2] = system: BCRP-overexpressing H460/MX20 cells; assay: [3H]-mitoxantrone accumulation assay, H460/MX20; format: cell-based, human
Description: as §1

[3] = system: BCRP protein in H460/MX20 cells; assay: Western blot of BCRP expression in H460/MX20 cells; format: cell-based, human; conditions: H460/MX20 total cell lysate; Figure 7
Description: Cells in T25 flask were washed with ice-cold PBS. Lysis buffer (100 µL) was added into T25 flask. Using a cell scraper, scrape adherent cells were scraped off the flask and the cell suspension was transferred into a microcentrifuge tube (1.5 mL). Cells were agitated for 20 min at 4 °C and cell lysate was centrifuged mixture at 4 °C for 20 min at 12,000 rpm. The supernatant (lysate) was used for the gel electrophoresis. Equal amounts of total cell lysates (20 µg protein) were resolved by sodium dodecyl sulfate polyacrylamide gel electrophoresis (SDS-PAGE) and electrophoretically transferred onto polyvinylidene fluoride (PVDF) membranes. After incubation in a blocking solution (5% milk) for 2 h at room temperature, the membranes were incubated overnight with primary monoclonal antibodies against GAPDH (GA1R) (Invitrogen, Carlsbad, CA, USA) at 1:1000 dilution of BCRP protein (BXP 21) (Sigma-Aldrich, Inc., St. Louis, MO, USA) (1:1000) or P-gp (F4) (Sigma-Aldrich, Inc., St. Louis, MO, USA) at 4 °C, and were further incubated with horseradish […] (HRP)-conjugated secondary antibody (Thermo Fisher Scientific Inc., Waltham, MA, USA) at 1:1000 dilution for 2 h at room temperature. The protein antibody complex was detected using an enhanced chemiluminescence detection system. The grayscale ratio was analyzed by ImageJ and normalized by the grayscale of the ABC protein divided by that of GAPDH.

[4] = system: BCRP localization in H460/MX20 cells; assay: Immunofluorescence assay of BCRP localization in H460/MX20 cells; format: cell-based, human; conditions: 5 μM for 24, 48, and 72 h, Figure 8A,C
Description: For immunofluorescence analysis, parental and drug-resistant cells were seeded in 24-well plates at 10,000–20,000 cells/well and incubated for 24 h. The cells were incubated with or without cyclopropyl quinazolinamine 22 or azide quinazolinamine 33 for 24 h, 48 h, and 72 h. Thereafter, cells were washed with PBS and fixed with 4% paraformaldehyde for 10 min at room temperature and then rinsed with PBS twice, followed by permeabilization with 1% Triton X-100 for 10 min at 4 °C. The cells were again washed twice with PBS, and then blocked with 6% BSA for 1 h at 37 °C. Fixed cells were incubated with monoclonal antibody against the BCRP protein (BXP 21) (Sigma-Aldrich, Inc., St. Louis, MO) (1:1000) or P-gp (F4) (Sigma-Aldrich, Inc., St. Louis, MO, USA) overnight at 4 °C, followed by two washes with PBS. The cells were then further incubated with Alexa flour 488 goat anti-mouse IgG (1:1000) (Abcam plc.) for 2 h at 37 °C. After the cells were washed twice with PBS, 4′,6-diamidino-2-phenylindole (DAPI) (2 µg/mL) was used for nuclear counterstaining. The immunofluorescence images were generated using a Nikon TE-2000S fluorescence microscope (Nikon Instruments Inc, Melville, NY, USA).

BCRP ATPase = molecular target: T1, BCRP ATPase (Homo sapiens, UniProt Q9UNQ0); assay: Vanadate-sensitive BCRP ATPase assay; format: biochemical; conditions: membrane vesicles of High Five insect cells; Figure 10A,B
T1 construct: host or cells: High Five insect cells (membrane vesicles)
T1 sequence (Q9UNQ0 1-655): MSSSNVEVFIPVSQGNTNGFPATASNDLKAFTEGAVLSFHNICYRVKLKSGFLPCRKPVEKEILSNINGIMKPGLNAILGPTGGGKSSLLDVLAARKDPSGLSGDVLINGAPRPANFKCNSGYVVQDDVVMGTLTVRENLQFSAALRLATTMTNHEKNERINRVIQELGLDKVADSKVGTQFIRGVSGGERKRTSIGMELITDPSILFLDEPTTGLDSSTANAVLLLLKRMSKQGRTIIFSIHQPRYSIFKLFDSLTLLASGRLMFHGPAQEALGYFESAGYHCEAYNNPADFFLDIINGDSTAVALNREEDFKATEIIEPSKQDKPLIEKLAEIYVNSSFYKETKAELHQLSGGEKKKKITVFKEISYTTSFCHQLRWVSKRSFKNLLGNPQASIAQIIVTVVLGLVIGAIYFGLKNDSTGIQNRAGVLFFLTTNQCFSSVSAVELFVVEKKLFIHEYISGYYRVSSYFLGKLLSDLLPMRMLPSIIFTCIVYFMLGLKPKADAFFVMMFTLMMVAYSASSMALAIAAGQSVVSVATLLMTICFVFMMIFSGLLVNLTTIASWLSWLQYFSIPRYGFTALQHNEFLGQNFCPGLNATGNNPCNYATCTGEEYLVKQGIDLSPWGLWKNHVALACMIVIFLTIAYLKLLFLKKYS
Description: The vanadate (Vi)-sensitive ATPase activity of BCRP and P-gp in the membrane vesicles of High Five insect cells was measured as described previously. The results were presented as vanadate-sensitive ATPase activities by determining the difference in inorganic phosphate liberation measured in the presence and absence of sodium orthovanadate.

[5] = system: human lung cancer cell line H460; assay: MTT reversal assay with mitoxantrone, parental H460 cells; format: cell-based; conditions: NCI-H460, H460, mitoxantrone alone, read-out: IC50 ± SD of mitoxantrone
Description: (§2) The human lung cancer cell line H460, and its MX-selected derivative BCRP-overexpressing cell line, H460/MX20, were used in this study. The KB-C2 cell line was selected by colchicine (Alfa Aesar, Haverhill, MA, USA) (2 μg/mL) with human cervical carcinoma cell line KB-3-1.
(§3) Cytotoxicity tests and reversal experiments were performed using the 3-(4,5-dimethylthiazol-2-yl)-2,5-diphenyltetrazolium bromide (MTT) colorimetric assay. Cells were seeded evenly into 96-well plates. […] To determine the MDR reversal efficacy of the quinazolinamine derivatives, an anticancer drug (mitoxantrone, colchicine, paclitaxel or cisplatin) was added into the designated wells after 2 h pre-incubation with a quinazolinamine derivative or a positive control inhibitor at non-toxic concentrations. After 72 h of drug incubation, the MTT reagent (4 mg/mL) was added into the wells, and then the plates were incubated for an additional 4 h. Subsequently, the supernatant was discarded and 100 µL of dimethyl sulfoxide (DMSO) was added to dissolve the formazan crystals. Cell viability was determined by measuring the absorbance by using an accuSkan™ GO UV/Vis Microplate Spectrophotometer (Fisher Sci., Fair Lawn, NJ, USA) at a wavelength of 570 nm.

[6] = system: BCRP-mediated MDR cell line H460/MX20; assay: MTT reversal assay with mitoxantrone, BCRP-overexpressing H460/MX20 cells; format: cell-based; conditions: Homo sapiens, NCI-H460/MX20, H460/MX20, mitoxantrone alone, read-out: IC50 ± SD of mitoxantrone
Description: as §2, §3

[7] = system: P-gp-mediated multidrug-resistant cell line KB-C2; assay: cells; conditions: Homo sapiens, KB-C2, read-out: IC50 value of colchicine
Description: as §2, §3

Metabolic Stability, % compound remaining [1]: 87 ± 12%
melting point: 228 to 230 °C
SMILES: CCc1ccc(Nc2nc(-c3ccncc3)nc3ccccc23)cc1 [Compound 4, N-(4-Ethylphenyl)-2-(pyridin-4-yl)quinazolin-4-amine]

Metabolic Stability, % compound remaining [1]: 80 ± 5%
melting point: 212 to 214 °C
SMILES: CCCc1ccc(Nc2nc(-c3ccncc3)nc3ccccc23)cc1 [Compound 5, N-(4-Propylphenyl)-2-(pyridin-4-yl)quinazolin-4-amine]

Metabolic Stability, % compound remaining [1]: 75 ± 6%
SMILES: CC(C)c1ccc(Nc2nc(-c3ccncc3)nc3ccccc23)cc1 [Compound 23, N-(4-Isopropylphenyl)-2-(pyridin-4-yl)quinazolin-4-amine]

Metabolic Stability, % compound remaining [1]: 91 ± 3%
SMILES: CCc1cccc(Nc2nc(-c3ccncc3)nc3ccccc23)c1 [Compound 24, N-(3-Ethylphenyl)-2-(pyridin-4-yl)quinazolin-4-amine]

Metabolic Stability, % compound remaining [1]: 83 ± 1%
SMILES: COc1ccc(Nc2nc(-c3ccncc3)nc3ccccc23)cc1 [Compound 27, N-(4-Methoxyphenyl)-2-(pyridin-4-yl)quinazolin-4-amine]

Metabolic Stability, % compound remaining [1]: 86 ± 11%
effect on Vi-sensitive BCRP ATPase activity (ATP hydrolysis) (BCRP ATPase): significantly stimulated
SMILES: [N-]=[N+]=Nc1ccc(Nc2nc(-c3ccncc3)nc3ccccc23)cc1 [Compound 33, N-(4-Azidophenyl)-2-(pyridin-4-yl)quinazolin-4-amine]
accumulation of mitoxantrone (H460 cells): slightly increase
accumulation of mitoxantrone after UV light activation ([2]; H460/MX20, compound followed by UV light activation): increased compared to the group without activation
accumulation of mitoxantrone ([2]; resistant H460/MX20 cells, compound 5 μM, Figure 6A): increased the accumulation
expression level of BCRP protein [3]: not altered
BCRP fluorescence on the membranes / intracellular localization of BCRP [4]: did not change the intracellular localization

SMILES: COc1ccc2c3c([nH]c2c1)[C@H](CC(C)C)N1C(=O)[C@H](CCC(=O)OC(C)(C)C)NC(=O)[C@@H]1C3 [Ko143, reference compound]
Metabolic Stability, % compound remaining [1]: 41% and 41 ± 7%

SMILES: O=C1c2c(O)ccc(O)c2C(=O)c2c(NCCNCCO)ccc(NCCNCCO)c21 [Mitoxantrone]
IC50 ([5]; Table 1 series): 0.072 ± 0.009 µM
IC50 ([5]; Table 2 series): 0.154 ± 0.051 µM
IC50 ([6]; Table 1 series): 5.66 ± 0.29 µM
IC50 ([6]; Table 2 series): 6.5 ± 0.14 µM

SMILES: COc1cc2c(c(OC)c1OC)-c1ccc(OC)c(=O)cc1[C@@H](NC(C)=O)CC2 [colchicine]
IC50 [7]: 7.34 µM
